Results: patent EP0148440A1, “1,3,4,5-Tetrahydrobenzo(c,d)indoles, process for their preparation and their uses” (Troponwerke GmbH & Co. KG, priority 1983, dated 1985)

Target: T1, 5-HT2 (Rattus norvegicus, UniProt P14842)
T1 construct: Präfrontaler Cortex-Ratte; from tissue; host or cells: rat prefrontal cortex membranes
Test: Affinity to serotonin receptors: 5-HT2, displacement of ^3H-Ketanserin
Assay type: binding
Settings: Präfrontaler Cortex-Ratte membranes, read-out: Inhibitionskonstante Ki

T1 sequence (P14842 whole entry): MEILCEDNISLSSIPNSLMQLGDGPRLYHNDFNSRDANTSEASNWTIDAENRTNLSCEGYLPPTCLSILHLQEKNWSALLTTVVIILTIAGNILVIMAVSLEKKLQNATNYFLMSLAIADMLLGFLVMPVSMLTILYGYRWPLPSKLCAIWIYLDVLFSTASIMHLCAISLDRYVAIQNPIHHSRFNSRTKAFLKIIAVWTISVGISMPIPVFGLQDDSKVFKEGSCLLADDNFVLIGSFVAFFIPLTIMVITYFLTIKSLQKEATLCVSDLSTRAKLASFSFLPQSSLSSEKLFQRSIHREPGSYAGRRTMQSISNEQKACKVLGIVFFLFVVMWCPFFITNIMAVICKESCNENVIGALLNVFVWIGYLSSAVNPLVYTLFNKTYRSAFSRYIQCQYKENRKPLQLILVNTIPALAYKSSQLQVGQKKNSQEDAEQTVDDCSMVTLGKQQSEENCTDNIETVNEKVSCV

`CCCN(CCC)C1Cc2c[nH]c3ccc(OC)c(c23)C1` (stereo not shown) [Beispiel 1, 6-Methoxy-4-dipropylamino-1,3,4,5-tetrahydrobenz[c,d]-indol] was tested, and the Ki was 1800 nM.
